Laboratory results as given in patent US9365830B2, “Agents and methods for inhibiting human pluripotent stem cell growth” (VIACYTE, INC., priority 2010, dated 2016).

How the values were obtained:
[1] = tested on: hESC suspension aggregate cultures, Stages 1-4 (pancreatic endoderm); test: Q-PCR marker gene expression, suspension aggregate cultures differentiated through Stages 1-4; format: cell-based, human; settings: for PDX1 and NKX6.1 gene expression: Stages 2, 3 and 4, compared to the Controls
Description: FIGS. 5A-5M. are bar graphs showing the relative gene expression levels of markers expressed in pluripotent cells or in cells of pancreatic lineage: OCT4 (FIG. 5A), MIXL (FIG. 5B), EOMES (FIG. 5C), CXCR4 (FIG. 5D), SOX17 (FIG. 5E), HNF1B (FIG. 5F), HNF4A (FIG. 5G), PDX1 (FIG. 5H), PTF1A (FIG. 5I), NKX2.2. (FIG. 5J), NGN3 (FIG. 5K), NKX6.1 (FIG. 5L) and PAX4 (FIG. 5M) with treatment of candidate selective cytotoxic agents from the LOPAC1280™ sublibrary (Table 4) to suspension aggregate cell cultures at Stages 1-4. Expression levels are normalized to the average expression levels of housekeeping genes. The graphs depict fold regulation compared to hESC sample. Ch.Cl=chelerythrine chloride; Deph.=dephostatin; AG=AG 490; SU=SU6656.
FIGS. 6A-6F are bar graphs showing the relative gene expression levels of markers of non-pancreatic lineage cells: SOX1 (FIG. 6A; e.g., at least observed in extraembryonic and neural cellss), ZIC1 (FIG. 6B; e.g., at least observed in early neural cells), PAX6 (FIG. 6C; e.g., at least observed in neural ectoderm cells), SOX7 (FIG. 6D; e.g., at least observed in extraembryonic cells), AFP (FIG. 6E; e.g., at least observed in liver cell and extraembryonic cells) and CDX2 (FIG. 6F; e.g., at least observed in extraembryonic cells) in compound-treated differentiations.
Effects of Candidate Inhibitor/Cytotoxic Agents in Suspension Aggregate Culture. The ideal inhibitor candidate for cell therapy would be compatible with pancreatic cell lineage viability in a manufacturing scale-up process (e.g. a suspension aggregate culture that could be propagated in a large bioreactor), as well as in small-scale cell culture, such as in 96-well plates or 6-well trays. Thus, an additional screen included conditions similar to those in a commercial-scale process. […] The remaining 4 compounds, chelerythrine chloride (Ch.Cl; Cmpd. No. 25), tyrphostin AG 490 (AG; Cmpd. No. 152), dephostatin (Deph; Cmpd. No. 48), and SU 6656 (SU; Cmpd. No. 126) were screened for selective inhibition of pluripotent stem cell growth in a suspension aggregate type culture, which is amenable to manufacturing scale-up process. Briefly, Human ESCs were aggregated in rotational culture and differentiated through Stages 1-4 to make pancreatic endoderm substantially as described in U.S. patent application Ser. No. 11/838,054, entitled COMPOSITIONS AND METHODS USEFUL FOR CULTURING DIFFERENTIABLE CELLS, filed Aug. 13, 2007; and U.S. patent application Ser. No. 12/264,760, entitled STEM CELL AGGREGATE SUSPENSION COMPOSITIONS AND METHODS OF DIFFERENTIATION THEREOF, filed Nov. 4, 2008, which are herein incorporated by reference in their entirety. RNA samples were collected from control and compound-treated cell cultures at various time points during the differentiation as above, for analysis by Q-PCR. FIGS. 5A-5M show the expression of markers characteristic of pluripotent stem cells or at least one of Stages 1-5. FIGS. 6A-6F show the expression of markers not normally expressed in pluripotent stem cells or Stages 1-5. Each graph includes 5 sections: QPCR samples were normalized to day 0 (hESC), which is the “Control” section farthest left on each graph of FIGS. 5A-5M; the other four sections to the right of the Control section correspond to the four compounds used to treat the cells (chelerythrine chloride (Ch.Cl; Cmpd. No. 25); tyrphostin AG 490 (AG490; Cmpd. No. 152), dephostatin (Deph; Cmpd. No. 48), and SU 6656 (SU6656; Cmpd. No. 126) left to right, respectively).

[2] = tested on: adherent Stage 1 cell cultures of BG02; test: Q-PCR marker gene expression, adherent Stage 1 cultures of BG02; format: cell-based, human; settings: for SOX17 gene expression: end of Stage 1, compared to DMSO control (FIG. 4D); for OCT4 and NANOG gene expression: end of Stage 1, compared to DMSO control (FIGS. 4A, 4B); for FOXA2 (HNF3β) expression: end of Stage 1, compared to DMSO control (FIG. 4C)
Description: FIGS. 4A-4G are bar graphs showing the relative gene expression levels of OCT4 (FIG. 4A), NANOG (FIG. 4B), FOXA2 (FIG. 4C), SOX17 (FIG. 4D), SOX7 (FIG. 4E), PAX6 (FIG. 4F) and ZIC1 (FIG. 4G) BG02 with treatment of candidate selective cytotoxic agents from the LOPAC1280™ sublibrary (Table 4) to adherent Stage 1 cell cultures of BG02. Expression levels were normalized using the geometric mean of three housekeeping genes, GUSB, CYCG and TBP. The graphs depict fold regulation compared to the hESC sample. The large arrow heads indicate time of the drug treatment. D=DMSO (control); C=Chelerythrine Chloride; A=AG490; B=BTO-1; De=Dephostatin; S=SU6656.
Screen for Effects on Stages 1-5 Differentiation. To further determine whether these 5 candidate compounds added at Stage 1 affected other differentiated cell types (e.g. Stages 2-5: foregut endoderm, posterior foregut endoderm, pancreatic endoderm and endocrine precursor cells, respectively), hES were differentiated in the presence or absence of compounds, and RNA samples were taken at various stages for gene expression analysis by Q-PCR.
Gene expression levels were plotted relative to a DMSO treated control at the end of Stage 1 (FIG. 4), and relative to undifferentiated hESC aggregates (FIGS. 5 and 6). See “Control” in FIGS. 4, 5 & 6. […] Chelerythrine chloride, Dephostatin, SU 6656 and Tyrphostin AG 490 compounds each caused an increase in SOX17 gene expression as compared to the DMSO control, consistent with the gene expression profile for Stage 1 definitive endoderm cell cultures (FIG. 4D). However, Tyrphostin AG 490 (AG) and SU 6656 (SU) each caused a decrease in FOXA2 (HNF3β) expression as compared to the DMSO control, indicating adverse effects of these two compounds on definitive endoderm (FIG. 4C). Yet none of the compounds appeared to substantially impact expression of non-definitive endoderm markers including SOX7, PAX6 or ZIC1 (FIGS. 4 E, 4F & 4G), and were not, therefore, excluded on the basis of inducing differentiation to other cell types. […] This compound neither decreased OCT4 or NANOG expression, nor increased FOXA2 (HNF3β) or SOX17 expression, as would have been expected of a pluripotent stem cell-selective inhibitor/cytotoxic agent.

| SMILES | differentiation of non-pancreatic lineage cells, or “off-target” cells ([1]; FIGS. 6A-6F) | PDX1 and NKX6.1 gene expression [1] | SOX17 gene expression [2] | OCT4 and NANOG gene expression [2] | AFP gene expression (non-pancreatic marker) ([1]; FIG. 6E) | FOXA2 (HNF3β) expression [2] | CDX2 gene expression (non-pancreatic marker) ([1]; FIG. 6F) |
| --- | --- | --- | --- | --- | --- | --- | --- |
| CN(N=O)c1cc(O)ccc1O [Dephostatin] | do not promote | increased | increase | subtle relative decrease |  |  |  |
| N#C/C(=C\c1ccc(O)c(O)c1)C(=O)NCc1ccccc1 [Tyrphostin AG 490] |  | reduced | increase | subtle relative decrease | elevated | decrease |  |
| CN(C)S(=O)(=O)c1ccc2c(c1)/C(=C/c1cc3c([nH]1)CCCC3)C(=O)N2 [SU 6656] |  | increased | increase | subtle relative decrease |  | decrease | elevated |
